Columns and labels:
[1] = test system: human umbilical vein endothelial cells (HUVECs); assay: HUVEC proliferation assay (WST-1), 2- and 4-day, 5,000 cells per well; format: cell-based; settings: for concentration-response profile in words: 2- and/or 4-day assay; for anti-proliferative activity in words at 0.01 μg/ml: 0.01 μg/ml peptide
Protocol: The effect of the various peptides on cell proliferation was assayed, by administering the peptides to human umbilical vein endothelial cells (HUVECs) in culture. 45 peptides belonging to four distinct families of proteins including the thrombospondin-1 containing proteins, the C-X-C chemokines, collagen derived peptides and peptides from tissue inhibitors of metalloproteinases were tested. The potency of each of the peptides was tested using the proliferation assay at 2 days and 4 days following administration of the peptides and a similar assay using a different cell density at 3 days. In the four-day experiments, the cell medium was changed after the second day of incubation and the peptide was replaced at the initial concentration together with the medium. TNP-470 is an antiangiogenic compound that was used as a positive control for assessing anti-angiogenic efficacy. The activity of each polypeptide was, therefore, expressed as a percentage of TNP-470 activity, i.e., the optical density obtained experimentally is scaled such that the negative control is 0% and the positive control is 100% as explained below (FIG. 4). Each plate included a well having HUVEC cells that received 0.1 μg/ml TNP-470. For example, a peptide having the same effect on endothelial cell proliferation would have 100% of the activity of TNP-470. Note that activity could exceed 100%. In this assay, the effects of the predicted anti-angiogenic fragments on the ability of HUVECs to proliferate was characterized. […] A commonly used methodology to test for proliferation is to monitor the viability and metabolic activity of endothelial cells, in the presence of the anti-angiogenic fragments at different concentrations and various time steps. The cell proliferation reagent WST-1 was used as a substrate/assay to measure the metabolic activity of viable cells. WST-1 is a colorimetric, non-radioactive assay and can be performed in a microplate. It is suitable for measuring cell proliferation, cell viability or cytotoxicity. The assay is based on the reduction a red tetrazolium salt, WST-1, by viable, metabolically active, cells to form the yellow formazan crystals soluble in the cell medium. […] The cells are cultured described above. Once cells have reached 80% confluence they are trypsinized and resuspended in EGM-2. The cell density is estimated using a hemocytometer. All of the endothelial cells used were from passage 4 to passage 8. The proliferation assay involved two steps. During the first step the cells, approximately 5,000 cells per well for a 96-well plate, were seeded without any extracellular matrix substrate on the wells overnight (8 hours). The initial cell culture medium was removed using a multichannel pipetor and the candidate peptides were applied. A logarithmic scale of four different concentrations of 0.01 μg/ml, 0.1 μg/ml, 1 μg/ml and 10 μg/ml of each peptide was used. Each of the concentrations was tested in quadruplicate. The viability of the cells was challenged at 2 and 4 days upon the application of the peptide. As a positive control for decreased viability, 0.1 μg/ml of TNP-470 (O-(chloro-acetyl-carbamoyl) fumagillol, a synthetic analogue of fumagillin; TNP-470 was provided by NCI, was provided along with the medium, and as a negative control for normal viability, the cells were cultured without the addition of any agent. The cells were then incubated with 10 μl per well of the red WST-1 reagent for approximately 2 to 4 hours. During this incubation period, viable cells converted, in their mitochondria, the red WST-1 to the yellow formazan crystals which dissolve in the medium. The second step of the assay involved the quantification of the changes in proliferation which was performed by measuring the change in color after lysing the cells. The samples were read using the ELISA plate reader Victor3 V (Perkin Elmer) at a wavelength of […]. The amount of color produced is directly proportional to the number of viable cells. […]

[2] = test system: human umbilical vein endothelial cells (HUVECs); assay: HUVEC proliferation assay (WST-1), 3-day, 2,000 cells per well; format: cell-based; settings: 3-day assay; for anti-proliferative activity in words at high peptide concentration: high/highest applied concentration (30 μg/ml where stated); for anti-proliferative activity in words: overall; for anti-proliferative activity (maximum or stated level), scaled so that TNP-470 = 100%: 0.01-30 μg/ml
Protocol: In addition to the 2 and 4 day proliferation experiment where 5,000 cells per well were seeded, the effects of the peptides on the proliferating ability of HUVECs were also studied using cells seeded at a density of 2,000 cells per well. This lower cell seeding density allowed the experiment to be extend for an additional day without changing the cell medium. The effects of the peptides when applied to the cells for 3 consecutive days is also reported herein. The proliferation assay again involved two steps. During the first step 2,000 cells per well for a 96-well plate were seeded without any extracellular matrix substrate on the wells overnight (8 hours). The initial cell culture medium was removed using a multichannel pipetor. To synchronize the cells, the cells were serum starved for 4 hours and the candidate peptides were applied. During serum starvation the cell culture medium was changed from a “full” medium to the “basal” medium, which contained no growth factors or serum. Serum starvation for 4 hours had no effect on the proliferation of the cells. For this assay, the logarithmic scale of four different concentrations of 0.01 μg/ml, 0.1 μg/ml, 1 μg/ml and 10 μg/ml of peptide was used. In addition, a larger concentration of 30 μg/ml peptide was also applied. Each of the concentrations was again tested in quadruplicate. After the third day of peptide application the WST-1 dye was applied for approximately 2 to 4 hours (usually after 3 hours the color saturates). The proliferation was later tested on the ELISA plate reader as described for the 2 and 4 day assay. Note that the 2- and 4-day and the 3-day protocols differed in that 5,000 cells/well versus 2,000 cells/well seeded, respectively.

[3] = 2- and 4-day assay, day not specified
[4] = 2- and 4-day assay, day not specified or constant throughout the four days
[5] = 10 μg/ml peptide, 2- and 4-day assay
[6] = 4 days of peptide application, 0.01-10 μg/ml

| Sequence | anti-proliferative activity (maximum or stated level), scaled so that TNP-470 = 100% [1, 4] | anti-proliferative activity in words at high peptide concentration [2] | concentration-response profile in words [2] | concentration-response profile in words [1] | anti-proliferative activity in words ([1]; 2 days of peptide application) | anti-proliferative activity (maximum or stated level), scaled so that TNP-470 = 100% [1, 6] [%] | anti-proliferative activity (maximum or stated level), scaled so that TNP-470 = 100% [2] [%] | also measured |
| --- | --- | --- | --- | --- | --- | --- | --- | --- |
| QPWSQCSATCGDGVRERRR [SEQ ID NO: 64, THSD1 AAQ88516.1: 347-365] | approximately 20% | substantial increase in activity |  |  |  |  |  | peptide concentration at which maximum activity was observed [1, 3]: 0.01 µg/mL |
| SAWRACSVTCGKGIQKRSR [SEQ ID NO: 43, Fibulin-6 CAC37630.1: 1574-1592] | 30% |  | peptide activity increasing as concentration increased |  |  |  |  |  |
| SEWSDCSVTCGKGMRTRQR [SEQ ID NO: 73, VSGP/F-spondin BAB18461.1: 621-639] |  | increased activity |  | biphasic profile | not statistically significant |  |  | peptide concentration at which maximum activity was observed ([1]; 4 days): 0.01 µg/mL; anti-proliferative activity in words ([1]; 4 days of peptide application): notable activity |
| SKWSECSRTCGGGVKFQER [SEQ ID NO: 29, ADAMTS-18 Q8TE60: 596-614] |  | significantly increased |  | biphasic response |  |  |  | anti-proliferative activity, TNP-470 = 100% ([1]; 1 μg/ml peptide, 2 days): 30%; anti-proliferative activity in words at 10 μg/ml [1, 5]: reduced |
| SPWSKCSAACGQTGVQTRTR [SEQ ID NO: 39, CILP AAQ89263.1: 156-175] | ~30% |  |  | biphasic activity |  |  |  | anti-proliferative activity, TNP-470 = 100% [1, 5]: 5%; anti-proliferative activity, TNP-470 = 100% ([1]; 0.01 and 0.1 μg/ml peptide, 2- and 4-day assay): 15%; peptide concentration at which maximum activity was observed [1, 3]: 1 µg/mL; peptide concentration at which maximum activity was observed [2]: 0.1 µg/mL |
| SPWSPCSGNCSTGKQQRTR [SEQ ID NO: 65, THSD3 AAH33140.1: 280-298] |  |  |  |  |  |  |  | anti-proliferative activity in words ([1]; 2- and 4-day assay, overall): did not effect endothelial cell proliferation; anti-proliferative activity in words [2]: did not effect endothelial cell proliferation |
| SPWSPCSTSCGLGVSTRI [SEQ ID NO: 74, WISP-1 AAH74841.1: 221-238] |  | reached higher values |  |  | not statistically significant | ~20 |  | anti-proliferative activity in words [2]: intermediate levels |
| SPWSQCSVRCGRGQRSRQVR [SEQ ID NO: 69, TSRC1 AAH27478.1: 140-159] |  | activity increased |  | biphasic | minimal activity | 25 |  | peptide concentration at which maximum activity was observed ([1]; 4 days): 0.1 µg/mL; anti-proliferative activity in words ([1]; 4 days of peptide application): prominent activity |
| SPWSQCTASCGGGVQTR [SEQ ID NO: 24, ADAMTS-16 Q8TE57: 1133-1149] |  | increase in peptide activity |  | biphasic response |  | 30 |  | anti-proliferative activity in words ([1]; 4 days of peptide application): strong activity |
| TAWGPCSTTCGLGMATRV [SEQ ID NO: 75, WISP-2 AAQ89274.1: 199-216] |  |  |  | biphasic response |  |  | 20 | anti-proliferative activity in words at 0.01 μg/ml ([1]; 2- and 4-day assay): quite potent |
| TEWSACNVRCGRGWQKRSR [SEQ ID NO: 71, UNC5D AAQ88514.1: 259-277] | 20% |  | biphasic |  |  |  | 30 |  |
| TEWSACSKTCGMGISTRV [SEQ ID NO: 41, CTGF CAC44023.1: 204-221] |  |  |  |  | low | 40 |  | peptide concentration at which maximum activity was observed ([1]; 4 days): 1 µg/mL; anti-proliferative activity in words [2]: resembled those observed in the 2-day assay |
| TEWSVCNSRCGRGYQKRTR [SEQ ID NO: 70, UNC5C AAH41156.1: 267-285] |  |  |  |  | negligible activity | 20 | 20 | anti-proliferative activity, TNP-470 = 100% ([2]; 30 μg/ml peptide): 40%; peptide concentration at which maximum activity was observed [2]: 10 µg/mL |
| TEWTACSKSCGMGFSTRV [SEQ ID NO: 46, NOVH AAL92490.1: 211-228] | 20% |  | monotonic increase with concentration |  |  |  |  | peptide concentration at which maximum activity was observed [1, 3]: 0.01 µg/mL |
| TKWTPCSRTCGMGISNRV [SEQ ID NO: 76, WISP-3 CAB16556.1: 191-208] |  |  | increased significantly as the concentration increased | biphasic |  |  |  | anti-proliferative activity in words at 0.01 μg/ml ([1]; 2- and 4-day assay): shows potency |
| TQWTSCSKTCNSGTQSRHR [SEQ ID NO: 38, C6 AAB59433.1: 30-48] |  |  | biphasic |  |  | 35 | 25 |  |
| TSWSQCSKTCGTGISTRV [SEQ ID NO: 42, CYR61 AAR05446.1: 234-251] | 30% |  |  | biphasic |  |  | 30 | peptide concentration at which maximum activity was observed [1, 3]: 0.01 µg/mL; peptide concentration at which maximum activity was observed [2]: 0.1 µg/mL |
| WDECSATCGMGMKKRHR [SEQ ID NO: 72, VSGP/F-spondin BAB18461.1: 567-583] |  |  |  |  | not statistically significant | 10 |  | anti-proliferative activity in words [2]: exhibited activity |
| WTRCSSSCGRGVSVRSR [SEQ ID NO: 66, THSD6 AAH40620.1: 44-60] |  |  | biphasic | biphasic |  |  | ~30 | peptide concentration at which maximum activity was observed [1, 3]: 0.1 µg/mL; anti-proliferative activity (maximum or stated level), scaled so that TNP-470 = 100% ([1]; 2 days of peptide application, 0.01-10 μg/ml): approximately 20% |
| YCNIHQVCHYAQRNDRSYWL [SEQ ID NO: 86, α4CIV CAA56943.1: 1524-1543] |  |  | increasing at higher peptide concentrations |  |  |  |  | anti-proliferative activity in words ([1]; 2- and 4-day assay, overall): low anti-proliferative activity; anti-proliferative activity in words [2]: greater |

From US9187539B2, “Compositions having antiangiogenic activity and uses thereof” (The Johns Hopkins University, priority 2005, dated 2015)
